From patent publication US11459323B2, “Monocyclic β-lactam compound for treating bacterial infection” (MEDSHINE DISCOVERY INC., priority 2018, dated 2022)
Converted amounts (≈) assume the structure as drawn. Where two headings read alike, the source gives them in different places. One block for each compound: values may come before it.

Key:
Assay in all cases: MIC on clinically isolated bacteria
Type in all cases: cell-based
[1] = system: Acinetobacter baumannii C181
From the text: (§1) Twenty-five strains of clinically isolated Acinetobacter baumannii and twenty-seven strains of Pseudomonas aeruginosa were respectively selected and used to determine the minimum inhibitory concentration (MIC) of the compounds by micro-liquid dilution method according to the Institute of Clinical and Laboratory Standard (CLSI) requirements.

[2] = system: Acinetobacter baumannii C241
From the text: as §1

[3] = system: Acinetobacter baumannii C251
From the text: as §1

[4] = system: Acinetobacter baumannii C270
From the text: as §1

[5] = system: Acinetobacter baumannii C279
From the text: as §1

[6] = system: Acinetobacter baumannii C281
From the text: as §1

[7] = system: Acinetobacter baumannii C312
From the text: as §1

[8] = system: Acinetobacter baumannii C313
From the text: as §1

[9] = system: Acinetobacter baumannii C319
From the text: as §1

[10] = system: Acinetobacter baumannii C328
From the text: as §1

[11] = system: Acinetobacter baumannii C330
From the text: as §1

[12] = system: Acinetobacter baumannii C332
From the text: as §1

[13] = system: Acinetobacter baumannii C333
From the text: as §1

[14] = system: Acinetobacter baumannii C357
From the text: as §1

[15] = system: Acinetobacter baumannii C361
From the text: as §1

[16] = system: Acinetobacter baumannii C390
From the text: as §1

[17] = system: Acinetobacter baumannii C394
From the text: as §1

[18] = system: Acinetobacter baumannii C401
From the text: as §1

[19] = system: Acinetobacter baumannii C402
From the text: as §1

[20] = system: Acinetobacter baumannii C403
From the text: as §1

[21] = system: Pseudomonas aeruginosa C745
From the text: as §1

[22] = system: Pseudomonas aeruginosa C754
From the text: as §1

[23] = system: Pseudomonas aeruginosa C755
From the text: as §1

[24] = system: Pseudomonas aeruginosa C763
From the text: as §1

[25] = system: Pseudomonas aeruginosa W13
From the text: as §1

[26] = system: Pseudomonas aeruginosa W19
From the text: as §1

[27] = system: Pseudomonas aeruginosa W1
From the text: as §1

[28] = system: Pseudomonas aeruginosa W20
From the text: as §1

[29] = system: Pseudomonas aeruginosa W21
From the text: as §1

[30] = system: Pseudomonas aeruginosa W24
From the text: as §1

[31] = system: Pseudomonas aeruginosa W27
From the text: as §1

[32] = system: Pseudomonas aeruginosa W28
From the text: as §1

[33] = system: Pseudomonas aeruginosa W29
From the text: as §1

[34] = system: Pseudomonas aeruginosa W32
From the text: as §1

[35] = system: Pseudomonas aeruginosa W35
From the text: as §1

[36] = system: Pseudomonas aeruginosa W42
From the text: as §1

[37] = system: Pseudomonas aeruginosa W46
From the text: as §1

[38] = system: Pseudomonas aeruginosa W47
From the text: as §1

[39] = system: Pseudomonas aeruginosa W4
From the text: as §1

[40] = system: Pseudomonas aeruginosa W6
From the text: as §1

[41] = system: Pseudomonas aeruginosa W9
From the text: as §1

Structure (SMILES): CN(C)c1cc(NC(=O)CNC(C)(C)C)c(O)c2c1C[C@H]1C[C@H]3[C@H](N(C)C)C(O)=C(C(N)=O)C(=O)[C@@]3(O)C(O)=C1C2=O [Tigecycline, reference compound]
- MIC ([1]; Acinetobacter baumannii, C181, read-out: Minimum Inhibitory Concentration (MIC)): 1 µg/mL (≈ 1.71 µM)
- MIC ([2]; Acinetobacter baumannii, C241, read-out: Minimum Inhibitory Concentration (MIC)): 2 µg/mL (≈ 3.41 µM)
- MIC ([3]; Acinetobacter baumannii, C251, read-out: Minimum Inhibitory Concentration (MIC)): 8 µg/mL (≈ 13.7 µM)
- MIC ([4]; Acinetobacter baumannii, C270, read-out: Minimum Inhibitory Concentration (MIC)): 1 µg/mL (≈ 1.71 µM)
- MIC ([5]; Acinetobacter baumannii, C279, read-out: Minimum Inhibitory Concentration (MIC)): 1 µg/mL (≈ 1.71 µM)
- MIC ([6]; Acinetobacter baumannii, C281, read-out: Minimum Inhibitory Concentration (MIC)): 1 µg/mL (≈ 1.71 µM)
- MIC ([7]; Acinetobacter baumannii, C312, read-out: Minimum Inhibitory Concentration (MIC)): 1 µg/mL (≈ 1.71 µM)
- MIC ([8]; Acinetobacter baumannii, C313, read-out: Minimum Inhibitory Concentration (MIC)): 1 µg/mL (≈ 1.71 µM)
- MIC ([9]; Acinetobacter baumannii, C319, read-out: Minimum Inhibitory Concentration (MIC)): 1 µg/mL (≈ 1.71 µM)
- MIC ([10]; Acinetobacter baumannii, C328, read-out: Minimum Inhibitory Concentration (MIC)): 1 µg/mL (≈ 1.71 µM)
- MIC ([11]; Acinetobacter baumannii, C330, read-out: Minimum Inhibitory Concentration (MIC)): 1 µg/mL (≈ 1.71 µM)
- MIC ([12]; Acinetobacter baumannii, C332, read-out: Minimum Inhibitory Concentration (MIC)): 1 µg/mL (≈ 1.71 µM)
- MIC ([13]; Acinetobacter baumannii, C333, read-out: Minimum Inhibitory Concentration (MIC)): 1 µg/mL (≈ 1.71 µM)
- MIC ([14]; Acinetobacter baumannii, C357, read-out: Minimum Inhibitory Concentration (MIC)): 1 µg/mL (≈ 1.71 µM)
- MIC ([15]; Acinetobacter baumannii, C361, read-out: Minimum Inhibitory Concentration (MIC)): 1 µg/mL (≈ 1.71 µM)
- MIC ([16]; Acinetobacter baumannii, C390, read-out: Minimum Inhibitory Concentration (MIC)): 1 µg/mL (≈ 1.71 µM)
- MIC ([17]; Acinetobacter baumannii, C394, read-out: Minimum Inhibitory Concentration (MIC)): 1 µg/mL (≈ 1.71 µM)
- MIC ([18]; Acinetobacter baumannii, C401, read-out: Minimum Inhibitory Concentration (MIC)): 1 µg/mL (≈ 1.71 µM)
- MIC ([19]; Acinetobacter baumannii, C402, read-out: Minimum Inhibitory Concentration (MIC)): 1 µg/mL (≈ 1.71 µM)
- MIC ([20]; Acinetobacter baumannii, C403, read-out: Minimum Inhibitory Concentration (MIC)): 1 µg/mL (≈ 1.71 µM)
- MIC [21]: > 16 µg/mL
- MIC [22]: 8 µg/mL (≈ 13.7 µM)
- MIC [23]: 4 µg/mL (≈ 6.83 µM)
- MIC [24]: > 16 µg/mL
- MIC [25]: 8 µg/mL (≈ 13.7 µM)
- MIC [26]: 8 µg/mL (≈ 13.7 µM)
- MIC [27]: 16 µg/mL (≈ 27.3 µM)
- MIC [28]: 16 µg/mL (≈ 27.3 µM)
- MIC [29]: 8 µg/mL (≈ 13.7 µM)
- MIC [30]: 16 µg/mL (≈ 27.3 µM)
- MIC [31]: 16 µg/mL (≈ 27.3 µM)
- MIC [32]: > 16 µg/mL
- MIC [33]: 16 µg/mL (≈ 27.3 µM)
- MIC [34]: 16 µg/mL (≈ 27.3 µM)
- MIC [35]: 8 µg/mL (≈ 13.7 µM)
- MIC [36]: 8 µg/mL (≈ 13.7 µM)
- MIC [37]: 8 µg/mL (≈ 13.7 µM)
- MIC [38]: 16 µg/mL (≈ 27.3 µM)
- MIC [39]: 8 µg/mL (≈ 13.7 µM)
- MIC [40]: 16 µg/mL (≈ 27.3 µM)
- MIC [41]: 16 µg/mL (≈ 27.3 µM)

- MIC ([1]; Acinetobacter baumannii C181, read-out: Minimum Inhibitory Concentration (MIC)): 2 µg/mL (≈ 2.87 µM)
- MIC ([2]; Acinetobacter baumannii C241, read-out: Minimum Inhibitory Concentration (MIC)): 2 µg/mL (≈ 2.87 µM)
- MIC ([3]; Acinetobacter baumannii C251, read-out: Minimum Inhibitory Concentration (MIC)): 16 µg/mL (≈ 22.9 µM)
- MIC ([4]; Acinetobacter baumannii C270, read-out: Minimum Inhibitory Concentration (MIC)): 2 µg/mL (≈ 2.87 µM)
- MIC ([5]; Acinetobacter baumannii C279, read-out: Minimum Inhibitory Concentration (MIC)): 2 µg/mL (≈ 2.87 µM)
- MIC ([6]; Acinetobacter baumannii C281, read-out: Minimum Inhibitory Concentration (MIC)): 2 µg/mL (≈ 2.87 µM)
- MIC ([7]; Acinetobacter baumannii C312, read-out: Minimum Inhibitory Concentration (MIC)): 2 µg/mL (≈ 2.87 µM)
- MIC ([8]; Acinetobacter baumannii C313, read-out: Minimum Inhibitory Concentration (MIC)): 2 µg/mL (≈ 2.87 µM)
- MIC ([9]; Acinetobacter baumannii C319, read-out: Minimum Inhibitory Concentration (MIC)): 2 µg/mL (≈ 2.87 µM)
- MIC ([10]; Acinetobacter baumannii C328, read-out: Minimum Inhibitory Concentration (MIC)): 2 µg/mL (≈ 2.87 µM)
- MIC ([11]; Acinetobacter baumannii C330, read-out: Minimum Inhibitory Concentration (MIC)): 2 µg/mL (≈ 2.87 µM)
- MIC ([12]; Acinetobacter baumannii C332, read-out: Minimum Inhibitory Concentration (MIC)): 2 µg/mL (≈ 2.87 µM)
- MIC ([13]; Acinetobacter baumannii C333, read-out: Minimum Inhibitory Concentration (MIC)): 2 µg/mL (≈ 2.87 µM)
- MIC ([14]; Acinetobacter baumannii C357, read-out: Minimum Inhibitory Concentration (MIC)): 2 µg/mL (≈ 2.87 µM)
- MIC ([15]; Acinetobacter baumannii C361, read-out: Minimum Inhibitory Concentration (MIC)): 2 µg/mL (≈ 2.87 µM)
- MIC ([16]; Acinetobacter baumannii C390, read-out: Minimum Inhibitory Concentration (MIC)): 2 µg/mL (≈ 2.87 µM)
- MIC ([17]; Acinetobacter baumannii C394, read-out: Minimum Inhibitory Concentration (MIC)): 2 µg/mL (≈ 2.87 µM)
- MIC ([18]; Acinetobacter baumannii C401, read-out: Minimum Inhibitory Concentration (MIC)): 1 µg/mL (≈ 1.43 µM)
- MIC ([19]; Acinetobacter baumannii C402, read-out: Minimum Inhibitory Concentration (MIC)): 2 µg/mL (≈ 2.87 µM)
- MIC ([20]; Acinetobacter baumannii C403, read-out: Minimum Inhibitory Concentration (MIC)): 2 µg/mL (≈ 2.87 µM)
- MIC ([21]; read-out: MIC): 8 µg/mL (≈ 11.5 µM)
- MIC ([22]; read-out: MIC): 0.25 µg/mL (≈ 0.358 µM)
- MIC ([23]; read-out: MIC): 0.25 µg/mL (≈ 0.358 µM)
- MIC ([24]; read-out: MIC): 4 µg/mL (≈ 5.73 µM)
- MIC ([25]; read-out: MIC): 0.25 µg/mL (≈ 0.358 µM)
- MIC ([26]; read-out: MIC): 0.25 µg/mL (≈ 0.358 µM)
- MIC ([27]; read-out: MIC): 0.5 µg/mL (≈ 0.717 µM)
- MIC ([28]; read-out: MIC): 0.5 µg/mL (≈ 0.717 µM)
- MIC ([29]; read-out: MIC): 0.25 µg/mL (≈ 0.358 µM)
- MIC ([30]; read-out: MIC): 0.5 µg/mL (≈ 0.717 µM)
- MIC ([31]; read-out: MIC): 0.5 µg/mL (≈ 0.717 µM)
- MIC ([32]; read-out: MIC): 4 µg/mL (≈ 5.73 µM)
- MIC ([33]; read-out: MIC): 0.5 µg/mL (≈ 0.717 µM)
- MIC ([34]; read-out: MIC): 1 µg/mL (≈ 1.43 µM)
- MIC ([35]; read-out: MIC): 0.125 µg/mL (≈ 0.179 µM)
- MIC ([36]; read-out: MIC): 0.25 µg/mL (≈ 0.358 µM)
- MIC ([37]; read-out: MIC): 0.25 µg/mL (≈ 0.358 µM)
- MIC ([38]; read-out: MIC): 0.5 µg/mL (≈ 0.717 µM)
- MIC ([39]; read-out: MIC): 1 µg/mL (≈ 1.43 µM)
- MIC ([40]; read-out: MIC): 0.5 µg/mL (≈ 0.717 µM)
- MIC ([41]; read-out: MIC): 0.5 µg/mL (≈ 0.717 µM)
Structure (SMILES): CC1(C)[C@H](NC(=O)/C(=N\O[C@@H](COc2ccc3c(c2)CN(C(=N)NCCCCN)C3)C(=O)O)c2csc(N)n2)C(=O)N1OS(=O)(=O)O [Compound 36]
